Data reported in paper PMC11208559 (Scientific Reports, 2024).

How the values were obtained:
Format in all cases: in vivo
[1] = system: CD-1 mice; experiment: Morphine anti-nociceptive tolerance and tolerance rescue (tail flick)
Description: (§1) Pre-injection tail-flick baselines were determined in a 52 °C tail-flick assay with a 10-s cutoff time (method also reported in Ref.[13]). […] No animals were excluded from these studies.

[2] = system: CD-1 mice; experiment: Post-surgical paw incision, mechanical allodynia (von Frey), morphine anti-nociception
Description: Mechanical thresholds were determined prior to surgery using calibrated von Frey filaments (Ugo Basile, Varese, Italy) with the up-down method and four measurements after the first response per mouse as in Ref.[27] and our previously published work (e.g. Ref.[28]). The mice were housed in a homemade apparatus with Plexiglas walls and ceiling and a wire mesh floor (3-inch wide 4-inch long 3-inch high with 0.25-inch wire mesh). The surgery was then performed by anesthesia with ~ 2% isoflurane in standard air, preparation of the left plantar hind paw with iodine and 70% ethanol, and a 5-mm incision made through the skin and fascia with a no. 11 scalpel. The muscle was elevated with curved forceps leaving the origin and insertion intact, and the muscle was split lengthwise using the scalpel. The wound was then closed with 5–0 polyglycolic acid sutures. Mice were then injected with inhibitor or Vehicle control and left to recover for 24 h. Our intrathecal (i.t.) injection protocol is reported in Refs.[13],[29]; briefly, the injection was made in awake and restrained animals with a 10 μL Hamilton syringe and 30 g needle (5–7 μL volume) between the L5-L6 vertebrae at a 45° angle, with placement validated by tail twitch. Since the injection was made through skin with no incision or other surgical intervention, repeated injection protocols were performed the same way. The next day, the mechanical threshold was again determined as described above. […] . No animals were excluded from these studies.

[3] = system: CD-1 mice; experiment: 52 °C tail-flick assay, morphine anti-nociception after Hsp90 inhibitor treatment
Description: as §1

[4] = system: CD-1 mice; experiment: HIV peripheral neuropathy (gp120), mechanical threshold, morphine anti-nociception
Description: Mechanical threshold baselines were measured prior to any treatment on the left hind paw using von Frey filaments. HIV peripheral neuropathy was induced by intrathecal injection of gp120 IIIb protein (SPEED BioSystems, Gaithersburg, MD, Cat# YCP1549, 15 ng/μl in 0.1 M PBS and 0.1% BSA, 7-μl volume) using our previously established protocol[13] on days 1, 3, and 5. On day 20 a second mechanical threshold baseline was measured on the left hind paw using von Frey filaments and then KU-32 or Vehicle was injected i.t with a 24-h treatment time. […] . No animals were excluded from these studies.

[5] = daily 0.01 nmol KU-32 i.t., twice daily 1–10 mg/kg morphine s.c., tail flick, 95% CI in parentheses
[6] = 0.01 nmol KU-32 i.t. vs Vehicle

Row | Compound | baseline nociception (tail flick baseline responses) ([1]; 0.01 nmol i.t. daily, 7-day regimen) | rescue of established morphine tolerance ([1]; 3 days twice daily 10 mg/kg morphine s.c., 0.01 nmol i.t. on day 3, 24 h, 10 mg/kg morphine on day 4) | A50 of morphine, Day 1 of tolerance regimen [1, 5] | A50 of morphine, Day 4 of tolerance regimen [1, 5] | fold increase in morphine potency, paw incision [2, 6] | A50 (morphine anti-nociceptive potency), paw incision ([2]; 0.01 nmol KU-32 i.t., 24 h, then 0.32–5.6 mg/kg morphine s.c., %MPE, 95% CI in parentheses) | fold increase in morphine potency, tail flick [3, 6] | A50 (morphine anti-nociceptive potency), tail flick ([3]; 0.01 nmol KU-32 i.t., 24 h, then 1–10 mg/kg morphine s.c., %MPE, 95% CI in parentheses) | A50 (morphine anti-nociceptive potency), HIV neuropathy ([4]; 0.01 nmol KU-32 i.t. on day 20, 24 h, then 0.32–10 mg/kg morphine s.c., %MPE, 95% CI in parentheses) | fold increase in morphine potency, HIV neuropathy [4, 6] | effect of systemic Hsp90α inhibitor on morphine anti-nociception, paw incision ([2]; 1 mg/kg i.v., 24 h, then 3.2 mg/kg morphine s.c.) | effect on morphine tail flick anti-nociception, isoform-selective inhibitor i.t. ([3]; 0.01 nmol i.t., 24 h, then 3.2 mg/kg morphine s.c.)
1 | CO[C@@H]1[C@@H](O)[C@@H](O)[C@H](Oc2ccc3cc(NC(C)=O)c(=O)oc3c2C)OC1(C)C [KU-32] | not altering baseline nociception | full anti-nociceptive response to morphine, comparable to their day 1 response | 1.9 (1.3–2.5) mg/kg | 5.5 (3.5–12) mg/kg | 2.8 fold | 0.85 (0.64–1.1) mg/kg | 1.9 fold | 1.6 (1.3–2.0) mg/kg | 1.2 (0.87–1.5) mg/kg | 3.5 fold | – | –
2 | Cc1ccc(Sc2cc(C(=O)N3Cc4ccccc4C3)ccc2O)cc1C [KUNA115] | – | – | – | – | – | – | – | – | – | – | completely blocked anti-nociception | significant anti-nociceptive elevation
